From US11339158B2, “Crystalline form of valbenazine ditosylate, processes for preparation thereof and use thereof” (Crystal Pharmaceutical (Suzhou) Co., Ltd., priority 2017, dated 2022)
Converted amounts (≈) assume the structure as drawn. “Also recorded” adds a separate entry of the source. Read-outs that look alike come from different tables or passages of the source. One block for each compound: values may come before it.

Columns and labels:
Type in all cases: physicochemical
[1] = Flowability (compressibility index / Carr Index); details: for Carr Index: c=(ρf−ρ0)/ρf; for Flowability: criteria of ICH Q4B Annex 13
Method: Compressibility index or Carr Index is usually utilized to evaluate the flowability of powder and granules during the drug product process. Compressibility index test method is as follows: a certain amount of powder was added into a measuring cylinder and bulk volume was recorded. Then the powder was tapped to make it in the tightest state and the tapped volume was recorded. The bulk density (ρ0), tapped density (ρf) were calculated and compressibility index was calculated according to c=(ρf−ρ0)/ρf.

[2] = Hygroscopicity (Chinese Pharmacopoeia 2015, general notice 9103); details: for Percentage gain (weight gain, hygroscopicity): 25±1° C., relative humidity 80%±2%, 24 hours
Method: The hygroscopicity experiment was conducted according to general notice 9103 drug hygroscopicity test guidelines in 2015 edition of Chinese Pharmacopoeia. The methods are listed as follows: • 1. A dry weighing bottle with a stopper (outer diameter is 50 mm and the height is 15 mm) was placed in a suitable desiccator at constant temperature of 25±1° C. (saturated solution of ammonium chloride or ammonium sulfate was placed in the lower compartment) or the a man-made climate chamber (the temperature is set as 25°±C. 1° C. and the relative humidity is 80%±2%) the day before the test. The weight is accurately weighed (m1). • 2. A suitable amount of the sample was spread into the weighing bottle. The thickness of the sample is generally about 1 mm, and the weight is accurately weighed (m2). • 3. The weighing bottle was kept open and placed under the same constant temperature and humidity mentioned above for 24 hours as well as the stopper. • 4. T The stopper was put on the weighing bottle, and then the weighing bottle with stopper was accurately weighed (m3).
The hygroscopicity of Form A in the present disclosure and Form I in prior art was tested.

[3] = Compressibility (tensile strength); details: Φ6 mm round tooling, 80 mg, 10 kN; for Tensile strength (MPa): T=2H/πDL; for Diameter (mm) / Thickness (mm): after 24 h
Method: A manual tablet press was used for compression. A certain amount of Form A and prior art Form I were added into the dies of round tooling (Ensuring the isotropy of the tablet), compressed at suitable pressure, and then stored at room temperature for 24 h until complete elastic recovery. Hardness (H) was tested with Intelligent Tablet Hardness Tester. Diameter (D) and thickness (L) were tested with caliper. Tensile strength of the powder was calculated with the following formula: T=2H/πDL. Under a certain force, the greater the tensile strength, the better the compressibility.

[4] = Kinetic solubility in FaSSIF and FeSSIF; details: for Kinetic solubility (concentration of saturated solution): listed as Prior art Form I; for solubility kinetic at 15 min / solubility kinetic at 30 min / solubility kinetic at 1 h: thermodynamic from solid, read-out: Kinetic solubility (concentration of saturated solution)
Method: High Performance Liquid Chromatography (HPLC) data in the present disclosure were collected from an Agilent 1260 with Diode Array Detector (DAD).
The HPLC method parameters for solubility test and dissolution tests in the present disclosure are as follows: • 1. Column: Waters XBridge C18 150×4.6 mm, 5 μm • 2. Mobile Phase: A: 0.1% TFA in H2O • B: 0.1% TFA in Acetonitrile
• 3. Flow rate: 1.0 mL/min • 4. Injection Volume: 10 μL • 5. Detection wavelength: 230 nm • 6. Column Temperature: 40° C. • 7. Diluent: Acetonitrile: H2O (v:v)=50:50
Simulated intestinal fluids, such as FaSSIF (fasted state simulated intestinal fluids) and FeSSIF (fed state simulated intestinal fluids) are biorelevant media. These media can better reflect the drug release affected by gastrointestinal environment. Solubility in such media is close to in vivo solubility.
20 mg of Form A in the present disclosure and 20 mg of prior art Form I were suspended in 1.5 mL of FaSSIF and 1.5 mL of FeSSIF to get saturated solutions. After equilibrium for 15 minutes, 30 minutes and 1 hour, concentrations of the saturated solutions (mg/mL) were measured by HPLC.

[5] = Adhesiveness (material sticking to the punch); details: for Cumulative amount (mg) sticking to the punch / Maximum amount (mg) sticking to the punch: 30 mg, φ8 mm round tooling, 10 kN, 30 s, repeated compression
Method: 30 mg of Form A and Form I in prior art were added into the dies of φ8 mm round tooling, compressed at 10 kN and held for 30 s. The punch was weighed and amount of material sticking to the punch was calculated. The compression was repeated several times to record the cumulative amount, maximum amount and average amount of material sticking to the punch during compression process.

[6] = Mechanical stability (tableting at 15 kN, XRPD); details: compressed at 15 kN, held 1 minute
Method: About 0.1 g of Form A was added into a die, compressed at 15 kN, and held for 1 minute. And then the pressure was released and the sample in the die was taken out for XRPD test. […] The XRPD pattern is substantially as depicted in FIG. 9.

[7] = Crystalline form after formulation process (XRPD of capsule); details: Form A in capsule
Method: The preparation process is described in Table 8.
The crystalline form of Form A in capsule was tested by XRPD. […] The XRPD pattern is substantially as depicted in FIG. 10.

[8] = Stability of Form A drug substance (XRPD and HPLC); details: for Change in solid form: XRPD; for Change in purity %: HPLC
Method: Four samples of Form A in the present disclosure was stored under different conditions of 25° C./60% RH in open and closed dishes for 3 months, 40° C./75% RH in closed dish for 3 months and 60° C./75% RH in closed dish for 1 week. Crystalline form and chemical impurity were checked by XRPD and HPLC, respectively.

[9] = 25° C./60% RH in open dish, 3 months
[10] = 40° C./75% RH in closed dish, 3 months
[11] = 60° C./75% RH in closed dish, 1 week

Bulk density [1]: 0.144 g/mL
Tap density [1]: 0.174 g/mL
Carr Index [1]: 17%
Flowability [1]: Fair (16-20)
Percentage gain (weight gain, hygroscopicity) ([2]; listed as Form I in prior art): 0.40%
Percentage gain (weight gain, hygroscopicity) ([2]; listed as prior art Form I): 0.40%
Tensile strength (MPa) [3]: 0.86 MPa
Diameter (mm) [3]: 6.04 mm
Thickness (mm) [3]: 2.30 mm
Kinetic solubility (concentration of saturated solution) ([4]; FaSSIF, 15 minutes): 30.637 mg/mL
Kinetic solubility (concentration of saturated solution) ([4]; FaSSIF, 30 minutes): 30.189 mg/mL
Kinetic solubility (concentration of saturated solution) ([4]; FaSSIF, 1 hour): 31.010 mg/mL
Kinetic solubility (concentration of saturated solution) ([4]; FeSSIF, 15 minutes): 34.054 mg/mL
Kinetic solubility (concentration of saturated solution) ([4]; FeSSIF, 30 minutes): 34.628 mg/mL
Kinetic solubility (concentration of saturated solution) ([4]; FeSSIF, 1 hour): 35.012 mg/mL
Maximum amount sticking to the punch, Form I relative to Form A [5]: more than 3 times
Cumulative amount (mg) sticking to the punch [5]: 0.21 mg
Maximum amount (mg) sticking to the punch [5]: 7.58 mg
SMILES: COc1cc2c(cc1OC)[C@H]1C[C@@H](OC(=O)[C@@H](N)C(C)C)[C@H](CC(C)C)CN1CC2 [Form I, (S)-2-amino-3-methyl-butyric acid (2R,3R,11bR)-3-isobutyl-9,10-dimethoxy-1,3,4,6,7,11b-hexahydro-2H-pyrido[2,1-a]isoquinolin-2-yl ester, reference compound]

Bulk density [1]: 0.179 g/mL
Tap density [1]: 0.209 g/mL
Carr Index [1]: 14%
Flowability [1]: Good (11-15)
Hygroscopicity relative to prior art form ([2]; Chinese Pharmacopoeia hygroscopicity test): 3/5
Tensile strength (MPa) [3]: 1.36 MPa
Diameter (mm) [3]: 6.11 mm
Thickness (mm) [3]: 2.33 mm
Time physically and chemically stable ([8]; 25° C./60% RH in closed dish): at least 3 months
Time physically and chemically stable ([8]; 25° C./60% RH in open dish): at least 3 months
Change in purity % [8, 9]: 0.03%
Time physically and chemically stable ([8]; 40° C./75% RH in closed dish): at least 3 months
Change in purity % [8, 10]: 0.09%
Time stable ([8]; 60° C./75% RH in closed dish): at least 1 week
Change in purity % [8, 11]: 0.08%
solubility kinetic at 15 min ([4]; FaSSIF, FaSSIF, 15 minutes): 31.4 mg/mL (≈ 75.1 mM)
solubility kinetic at 30 min ([4]; FaSSIF, FaSSIF, 30 minutes): 31.3 mg/mL (≈ 74.8 mM)
solubility kinetic at 1 h ([4]; FaSSIF, FaSSIF, 1 hour): 31.8 mg/mL (≈ 76 mM)
Solubility of Form A relative to prior art Form I ([4]; FeSSIF): 1.23 times
solubility kinetic at 15 min ([4]; FeSSIF, FeSSIF, 15 minutes): 41.9 mg/mL (≈ 100 mM)
solubility kinetic at 30 min ([4]; FeSSIF, FeSSIF, 30 minutes): 41.7 mg/mL (≈ 99.5 mM)
solubility kinetic at 1 h ([4]; FeSSIF, FeSSIF, 1 hour): 41.3 mg/mL (≈ 98.6 mM)
Cumulative amount (mg) sticking to the punch [5]: 0.06 mg
Maximum amount (mg) sticking to the punch [5]: 0.17 mg
SMILES: COc1cc2c(cc1OC)[C@H]1C[C@@H](OC(=O)[C@@H](N)C(C)C)[C@H](CC(C)C)CN1CC2 [Form A, (S)-2-amino-3-methyl-butyric acid (2R,3R,11bR)-3-isobutyl-9,10-dimethoxy-1,3,4,6,7,11b-hexahydro-2H-pyrido[2,1-a]isoquinolin-2-yl ester]
Form change after tableting [6]: doesn't change; also recorded: no form change is observed
Form change of Form A after formulation process [7]: no form change was observed; also recorded: doesn't change
Change in solid form ([8]; 25° C./60% RH in closed dish, 3 months): doesn't change; also recorded: No form change
Change in solid form [8, 9]: doesn't change; also recorded: No form change
Change in solid form [8, 10]: doesn't change; also recorded: No form change
Change in solid form [8, 11]: doesn't change; also recorded: No form change
